# Experimental data: PubChem BioAssay AID1963975 (Molecular Pharmacology Branch, DTP, NCI, 2024)
# “And” between values parts separate entries of the source, which are not always exact repeats. Equal values may be shown once.
# Tested on: 624824-186-R-J2-PDC multicell spheroids, viability
# Test: Anticancer human tumor 624824-186-R-J2-PDC patient-derived colon adenocarcinoma cell line growth inhibition [PI3K]
# Settings: for viability, T/C: stronger effect = lower value
# Description: Combinatorial screen of targeted agents with the PI3K inhibitors inavolisib, alpelisib, duvelisib, and copanlisib in multi-cell type tumor spheroids
# A high-throughput screen of multi-cell type tumor spheroids was designed to identify active combinations of targeted small molecules and PI3K pathway inhibitors. Complex spheroids include a stromal component modeled by human endothelial cells (HUVEC) and fibroblasts modeled by human mesenchymal stem cells (MSCs). The concentration ranges selected for each drug and investigational agent were based upon clinically achievable concentrations if the clinical Cmax of the agent was known.
# Compounds. The drugs and investigational agents: inavolisib (NSC800729), alpelisib (NSC765974), duvelisib (NSC772469), copanlisib (NSC816437), ipatasertib (NSC767898), afuresertib (NSC778305), talazoparib (NSC767125), sapanisertib (NSC764658), selumetinib (NSC741078), tovorafenib (DAY101, NSC766906), vemurafenib (NSC761431), ravoxertinib (NSC781343), sotorasib (NSC818433), MRTX1133 (NSC 836407), abemaciclib (NSC 768073), palbociclib (NSC758247), venetoclax (NSC 766270), SY5609 (NSC837396), enzalutamide (NSC755605), and darolutamide (NSC825331), were obtained from the National Cancer Institute (NCI) Developmental Therapeutics Program Chemical Repository. The FDA-approved anticancer drug set is available from the NCI Developmental Therapeutics Program. […] The stock solutions were prepared in dimethyl sulfoxide (DMSO, Sigma-Aldrich, St. Louis, MO, cat. D2650) at 800-fold the tested concentration and stored at -70 degrees C prior to their use. All drugs and investigational agents were tested over a range starting from a high concentration at or near the clinical Cmax and decreasing in half-log increments. If the clinical Cmax for an agent had not been determined, the highest concentration tested was 10 microM.
# Cell Culture. All cells were maintained in an incubator at 37 degrees C and 5% CO2 with 95% humidity. The PDC lines were cultured according to standard operating procedures established by the NCI PDMR (https://pdmr.cancer.gov/sops/default.htm). All PDCs were thawed and cultured in Matrigel-coated flasks prepared with a working solution of 1X Ham's F-12 nutrient mix, without supplementation (Invitrogen, Waltham, MA, cat. 11765054), 100 U/mL penicillin-streptomycin (Invitrogen, cat. 15140122), and 2.5% Matrigel (Corning Inc., Corning, NY, cat. 354248) for the first three passages. The 354836-022-R-J1-PDC, 475296-252-R-J1-PDC, and 997726-040-R-J2-PDC lines were cultured in 6A media, which includes advanced DMEM/F-12 (Thermo Fisher Scientific, cat. 12634028), 10 mM HEPES (Thermo Fisher Scientific, cat. 15630080), 1X GlutaMAX supplement (Thermo Fisher Scientific, cat. 35050061), 0.1 mg/mL primocin (InvivoGen, San Diego, CA, cat. ant-pm-2), 10% defined fetal bovine serum, heat inactivated (HyClone Laboratories Inc., Logan, UT, cat. SH30070.03HI), 50% L-WRN conditioned media (ATCC, cat. CRL-3276), 1.25 mM N-Acetyl-L-cysteine (Sigma-Aldrich, cat. A9165), 10 mM nicotinamide (Sigma-Aldrich, cat. N0636), 1X B-27 supplement (Thermo Fisher Scientific, cat. 17504044), 1X N-2 supplement (Thermo Fisher Scientific, cat. 17502048), and 10 microM Y-27632 dihydrochloride (Tocris Bioscience, Bristol, United Kingdom, cat. 1254). The 624824-186-R-J2-PDC line was cultured in 6C/Colon 1B media, which includes all 6A media components plus 50 ng/mL human EGF recombinant protein (Thermo Fisher Scientific, cat. PHG0311). […]
# [1] = curve of first compound, second compound 0.0316 µM
# [2] = curve of first compound, second compound 0.1 µM
# [3] = curve of first compound, second compound 0.316 µM
# [4] = curve of first compound, second compound 1 µM
# [5] = curve of first compound, second compound 3.16 µM
# [6] = curve of first compound, second compound 10 µM
# [7] = second compound 0.0316 µM, first compound 0.0316 µM
# [8] = second compound 0.0316 µM, first compound 0.1 µM
# [9] = second compound 0.0316 µM, first compound 0.316 µM
# [10] = second compound 0.0316 µM, first compound 1 µM
# [11] = second compound 0.0316 µM, first compound 3.16 µM
# [12] = second compound 0.0316 µM, first compound 10 µM
# [13] = second compound 0.1 µM, first compound 0.0316 µM
# [14] = second compound 0.1 µM, first compound 0.1 µM
# [15] = second compound 0.1 µM, first compound 0.316 µM
# [16] = second compound 0.1 µM, first compound 1 µM
# [17] = second compound 0.1 µM, first compound 3.16 µM
# [18] = second compound 0.1 µM, first compound 10 µM
# [19] = second compound 0.316 µM, first compound 0.0316 µM
# [20] = second compound 0.316 µM, first compound 0.1 µM
# [21] = second compound 0.316 µM, first compound 0.316 µM
# [22] = second compound 0.316 µM, first compound 1 µM
# [23] = second compound 0.316 µM, first compound 3.16 µM
# [24] = second compound 0.316 µM, first compound 10 µM
# [25] = second compound 1 µM, first compound 0.0316 µM
# [26] = second compound 1 µM, first compound 0.1 µM
# [27] = second compound 1 µM, first compound 0.316 µM
# [28] = second compound 1 µM, first compound 1 µM
# [29] = second compound 1 µM, first compound 3.16 µM
# [30] = second compound 1 µM, first compound 10 µM
# [31] = second compound 3.16 µM, first compound 0.0316 µM
# [32] = second compound 3.16 µM, first compound 0.1 µM
# [33] = second compound 3.16 µM, first compound 0.316 µM
# [34] = second compound 3.16 µM, first compound 1 µM
# [35] = second compound 3.16 µM, first compound 3.16 µM
# [36] = second compound 3.16 µM, first compound 10 µM
# [37] = second compound 10 µM, first compound 0.0316 µM
# [38] = second compound 10 µM, first compound 0.1 µM
# [39] = second compound 10 µM, first compound 0.316 µM
# [40] = second compound 10 µM, first compound 1 µM
# [41] = second compound 10 µM, first compound 3.16 µM
# [42] = second compound 10 µM, first compound 10 µM
# 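Note: spheroids exposed to agents for 7 days before viability read.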
# 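Throughout, for viability, T/C: 100% = DMSO vehicle treated spheroids.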
structure (smiles),measurement,setting,value
CCCS(=O)(=O)Nc1ccc(F)c(C(=O)c2c[nH]c3ncc(-c4ccc(Cl)cc4)cc23)c1F + Cc1nc(NC(=O)N2CCCC2C(N)=O)sc1-c1ccnc(C(C)(C)C(F)(F)F)c1,IC50,[1],> 10 µM
same,IC50,[2],7.11 µM
same,IC50,[3],6.6 µM
same,IC50,[4],5.13 µM
same,IC50,[5],1.04 µM
same,IC50,[6],0.455 µM
same,"viability, T/C",[7],68%
same,"viability, T/C",[8],77.2%
same,"viability, T/C",[9],61.6%
same,"viability, T/C",[10],76.8%
same,"viability, T/C",[11],87.3%
same,"viability, T/C",[12],42.2%
same,"viability, T/C",[13],84%
same,"viability, T/C",[14],64.8%
same,"viability, T/C",[15],61.2%
same,"viability, T/C",[16],91.9%
same,"viability, T/C",[17],96.5%
same,"viability, T/C",[18],37.7%
same,"viability, T/C",[19],72.3%
same,"viability, T/C",[20],72.7%
same,"viability, T/C",[21],53.8%
same,"viability, T/C",[22],73.1%
same,"viability, T/C",[23],78.1%
same,"viability, T/C",[24],38.9%
same,"viability, T/C",[25],74.6%
same,"viability, T/C",[26],50.7%
same,"viability, T/C",[27],54.4%
same,"viability, T/C",[28],65.6%
same,"viability, T/C",[29],75.9%
same,"viability, T/C",[30],30.4%
same,"viability, T/C",[31],79.6%
same,"viability, T/C",[32],60.6%
same,"viability, T/C",[33],56.4%
same,"viability, T/C",[34],51.7%
same,"viability, T/C",[35],52%
same,"viability, T/C",[36],23.2%
same,"viability, T/C",[37],58.7%
same,"viability, T/C",[38],50%
same,"viability, T/C",[39],49.9%
same,"viability, T/C",[40],45.1%
same,"viability, T/C",[41],41.1%
same,"viability, T/C",[42],19%
CCCS(=O)(=O)Nc1ccc(F)c(C(=O)c2c[nH]c3ncc(-c4ccc(Cl)cc4)cc23)c1F,"viability, T/C",compound 0.0316 µM,90.4% [middle of 4 runs]
same,"viability, T/C",compound 0.1 µM,90.6% [middle of 4 runs]
same,"viability, T/C",compound 0.316 µM,88% [middle of 4 runs]
same,"viability, T/C",compound 3.16 µM,122% [middle of 4 runs]
same,"viability, T/C",compound 10 µM,52.3% [middle of 4 runs]
same,IC50,curve of compound,9.53 µM and > 10 µM and 9.39 µM
CC(C)NCC(C(=O)N1CCN(c2ncnc3c2C(C)CC3O)CC1)c1ccc(Cl)cc1 (stereo not given) + Cc1nc(NC(=O)N2CCCC2C(N)=O)sc1-c1ccnc(C(C)(C)C(F)(F)F)c1,IC50,[1],> 10 µM
same,IC50,[2],> 10 µM
same,IC50,[3],> 10 µM
same,IC50,[4],> 10 µM
same,IC50,[5],> 10 µM
same,IC50,[6],> 10 µM
same,"viability, T/C",[7],88.1%
same,"viability, T/C",[8],106%
same,"viability, T/C",[9],72.2%
same,"viability, T/C",[10],85%
same,"viability, T/C",[11],93.3%
same,"viability, T/C",[12],68.2%
same,"viability, T/C",[13],79.3%
same,"viability, T/C",[14],72.6%
same,"viability, T/C",[15],85%
same,"viability, T/C",[16],68.1%
same,"viability, T/C",[17],76.5%
same,"viability, T/C",[18],74.4%
same,"viability, T/C",[19],78.2%
same,"viability, T/C",[20],68.2%
same,"viability, T/C",[21],77.5%
same,"viability, T/C",[22],75.3%
same,"viability, T/C",[23],79.6%
same,"viability, T/C",[24],64.9%
same,"viability, T/C",[25],64.5%
same,"viability, T/C",[26],85.9%
same,"viability, T/C",[27],63.4%
same,"viability, T/C",[28],86.4%
same,"viability, T/C",[29],76.5%
same,"viability, T/C",[30],75.4%
same,"viability, T/C",[31],78.2%
same,"viability, T/C",[32],79.8%
same,"viability, T/C",[33],81.3%
same,"viability, T/C",[34],82.2%
same,"viability, T/C",[35],68%
same,"viability, T/C",[36],55.9%
same,"viability, T/C",[37],73.5%
same,"viability, T/C",[38],66.6%
same,"viability, T/C",[39],58.1%
same,"viability, T/C",[40],62.5%
same,"viability, T/C",[41],63.7%
same,"viability, T/C",[42],55.8%
